According to a melting point compilation (Tetko et al.; mined from patent text by program, amines drawn as free bases though some values may be those of a salt):

| SMILES | melting point [°C] |
| --- | --- |
| CCCC(C)(C)C[C@@H](CC(=O)OC(C)(C)C)C(=O)N1C(=O)O[C@H](c2ccccc2)[C@@H]1C | 83 to 85 |
| CCOC(=O)c1cn2c3c(c(F)c(F)cc3c1=O)OCC21CCC1 | 255 to 256 |
| Cn1c(=O)oc2cc(C(=O)CCN3CCN(c4ccc(F)cc4)CC3)ccc21 | 149 |
| CCc1nc2c(C)cc(C)nc2n1Cc1ccc(C(c2ccccc2C)C(C(=O)O)C(=O)O)cc1 (centres undefined) | 160 to 161 |
| CNc1nc(OC)ccc1[N+](=O)[O-] | 152 to 153 |
| CC1(OCc2ccccc2F)COC(c2cccc(F)c2)OC1 (centres undefined) | 83 to 84 |
| O=C(Nc1ccccc1)c1ccc(O)c(Nc2ccccc2)c1 | 158 to 159 |
| CC(=Nc1ccc(Cl)nn1)N(C)C | 73 |
| CC(=O)C1C(Cl)CC2C3CCC4CC(O)CCC4(C)C3C(=O)CC21C (centres undefined) | 226 to 227 |
| O=C(O)C1(C(=O)O)C=CC=CN1 | 186 |
| Cc1ccc(OCC(=O)O)c2sc3ccccc3c(=O)c12 | 198 to 235 |
| COc1cc2cc(CC(C)(C(N)=O)c3ccc(C#N)cc3)sc2cc1OC (centres undefined) | 178 to 180 |
| c1ccc2c(c1)CNc1c-2ccc2ccccc12 | 186 to 188 |
| CNC(=S)n1nc(Oc2ncc(C(F)(F)F)cc2Cl)cc1C | 63 to 65 |
| Clc1ccc(/C=C/C2=CCN(Cc3ccc(Cl)cc3)CC2)cc1 | 127 |
| CCc1cc(C(F)(C(F)(F)F)C(F)(F)F)cc(C)c1NC(=O)c1cccc(N=S=O)c1 | 100 to 108 |
| COC(=O)C1=C(C)NC(C(OC)OC)=C(C(=O)OC)C1c1cccc2c(=O)c(C)c(-c3ccccc3)oc12 (centres undefined) | 166 to 168 |
| CC(=O)c1ccc(C(=O)c2ccc(O)c(CC(=O)O)c2)cc1 | 235 |
| O=C1c2ccccc2C(=O)N1[C@@H]1C[C@H](O)[C@@H](O)[C@H]1O (racemic) | 175 to 176 |

| SMILES | melting point [°C] |
| --- | --- |
| CC1=C(C(=O)OC(C)C)C(c2cccc([N+](=O)[O-])c2)n2c(n[nH]c2=O)N1 (centres undefined) | 225 to 227 |
| COc1ccc(C(=O)Nc2ccccc2)cc1NC(=S)Nc1ccc(OC)c(OC)c1 | 170 to 171 |
| Cc1oc(-c2ccccc2)nc1COc1ccc(COc2nn(-c3ccccc3)cc2CO)cc1 | 118 to 119 |
| O=C1Cc2cccc(S(=O)(=O)c3ccccc3)c2N1 | 217 to 220 |
| CSc1nc(-c2ccc(C#N)cc2)cn1-c1ccc(C#N)cc1 | 209 to 219 |
| O=C(Nc1ccc(-c2nn(C(=O)c3ccccc3)c3c2Cc2ccccc2-3)cc1)c1ccccc1 | 241 |
| CC1(C)CCn2c(nc(-c3ccncc3)cc2=O)N1 | 345 to 347 |
| Cc1nc2ccccn2c(=O)c1CCN1CCN(C(=NNc2ccccc2)c2ccccc2F)CC1 | 180 |
| CCc1cn(C2CC(O)C(CNC(=O)Cc3cccs3)O2)c(=O)[nH]c1=O (centres undefined) | 215 to 217 |
| O=C1N(C2CCCCC2)CC(CO)C1(c1ccccc1)c1ccccc1 (centres undefined) | 148 to 150 |
| Nc1ccc(NC(=O)CCC(=O)O)cc1 | 180 to 181 |
| C#CCN1C(=O)CC(c2ccccc2)N=C1c1ccccc1 (centres undefined) | 74.5 to 77 |
| CSc1ccc2c(C3=C(c4cn(C)c5cc([N+](=O)[O-])ccc45)C(=O)NC3=O)cn(C)c2c1 | 273 to 275 |
| CCCCCCCCCCCCCCCCCCOC(=O)P(=O)(OC)OC | 41 to 42 |
| Cc1ccc2nc(-c3ccc(C=O)cc3)cn2c1 | 210 to 211 |
| CCCCCCCC=CCCCCCCCCC(=O)OCC(O)COC(=O)CCCCCCCC=CCCCCCCCC (centres undefined) | 20 to 22 |
| COc1ccc(OC)c2c1COC(c1ncc(S(=O)(=O)c3ccc(C)cc3)o1)C2 (centres undefined) | 138 to 140 |
| O=C(O)C1CC(=Cc2ccccc2)CC1C(=O)O (centres undefined) | 172 |

Second part, the compound after the results:

| melting point [°C] | SMILES |
| --- | --- |
| 108 to 110 | CCCc1nc(CO)c(C(=O)OCC)n1Cc1ccc(-c2ccccc2C(=O)OC(C)(C)C)cc1 |
| 136 to 137 | CCCCCc1oc(-c2ccc(Cl)cc2)nc1CC(=O)O |
| 68 to 70 | COc1ccc(C(=O)N2CCc3sccc3C2c2ccc(OC(F)(F)F)cc2)cc1 (centres undefined) |
| 199 to 200 | O=C1OCCC12Oc1ccc([N+](=O)[O-])cc1C2=O (centres undefined) |
| 136 to 138 | CCCCCC(CC(=O)Nc1cc(C(=O)O)ccc1C(C)(C)C)c1ccc(C(=O)CCC)cc1OC (centres undefined) |
| 91 to 92 | CCOC(=O)Cc1nsc2ccc([N+](=O)[O-])cc12 |
| 132 to 134 | COc1ccc(COc2cccc(C(=O)Nc3ccc(C#N)cn3)c2)cc1 |
| 178 | CNC(=O)C=C1CC2(CCCC2)c2ccccc21 |
| 244 to 245 | N#Cc1cnn2c(-c3ccc(Cl)cc3)ccnc12 |
| 139 to 140 | CC(C)Nc1cccnc1N1CCN(C(=O)c2ccc(C(=O)NCCCO)cn2)CC1 |
| 60 | c1cc(OCC2CO2)c2cn[nH]c2c1 (centres undefined) |
| 92 to 94 | O=C(CBr)c1ccc2c(c1)CCCS2 |
| 101 to 103 | CCOC(=O)N1CCN(c2ccncc2[N+](=O)[O-])CC1 |
| 88 to 90 | Cc1oc(-c2ccccc2)nc1CCOc1ccc(CCl)cc1 |
| 59 to 64 | COc1ccc(S(=O)(=O)N(C)C)c(N)c1 |
| 234 to 235 | CCCC1=C(C#N)C(c2cccc([N+](=O)[O-])c2Cl)c2c[nH]nc2N1 (centres undefined) |
| 66 to 67 | CCCCCCCCCCCCCCCCCCOc1ccc(NC(=O)OC(C)(C)C)cc1 |
| 145 to 146 | CS(=O)(=O)c1ccc(-n2cnc(Cl)c2-c2ccccc2)cc1 |
| 98 | CC12CCC(=O)C=C1CCN(Cc1ccccc1)C2 (centres undefined) |

| melting point [°C] | SMILES |
| --- | --- |
| 199 to 201 | CC(=O)NCC1CN(c2ccc(N3CCN(C(=O)COC(C)=O)CC3)c(F)c2)C(=O)O1 (centres undefined) |
| 168 | CC(C)(C)OC(=O)CCc1cccc(-c2nc(=O)c3ccc(Cl)cc3s2)n1 |
| 146 to 149 | CCc1nc(NC)sc1-c1ccncc1 |
| 144 to 146 | COc1ccc(C(=O)Nc2cccc(Cl)c2)cc1N |
| 326 | O=C1Nc2ccc(I)cc2C1=NNC(=O)c1ccc(I)cc1 |
| 172 | CC(=O)Nc1cc(Cl)c(C(C#N)c2ccc(Cl)c(C(F)(F)F)c2)c(Cl)c1 (centres undefined) |
| < 50 | FC(F)(F)Oc1ccc2nc(Cl)sc2c1 |
| 258 to 260 | O=C(O)c1cc2c(s1)-c1ccccc1OC2C1=CCCC=C1 (centres undefined) |
| 152 to 154 | Cc1nc2cccc(O)c2o1 |
| 170 | CC(C)N1CC(OCC2CC2)(C(F)(F)F)c2cc(Cl)ccc2NC1=O (centres undefined) |
| 125 to 130 | Cc1cc(C(=O)N2Cc3cccn3Cc3ccccc32)ccc1NC(=O)c1ccccc1C |
| 33 to 35 | CC(=O)C(C)(C(C)=O)C(C)=O |
| 90 | Cc1c(C)c(C=O)c2c(c1C)CCO2 |
| 132 to 133 | CCc1cc(OCc2ccccc2)ccc1C(=O)O |
| 121 to 126 | COC(=O)c1ccc(SC(Cn2ccnc2)c2ccccc2C(F)(F)F)cc1 (centres undefined) |
| 120 to 121 | CC(=O)ON(C(=O)NN(C)C)C1c2ccccc2Oc2ccccc21 |
| 109 to 110 | CC(C)Nc1ncnc2c1ncn2Cc1c(Cl)cccc1Cl |
| 60 to 61.5 | CSc1ccc(C2=C(c3ccc(C(F)(F)F)cc3)CCC2)cc1 |
